{"source": "patent US20240174690A1", "about": "“ANNULATED 2-AMINO-3-CYANO THIOPHENES AND DERIVATIVES FOR THE TREATMENT OF CANCER” (BOEHRINGER INGELHEIM INTERNATIONAL GMBH, priority 2021, published 2024)", "key": {"[1]": {"assay": "Plasma protein binding assay (PPB), equilibrium dialysis, 10% FCS in PBS", "format": "in vitro ADME", "conditions": "bovine, read-out: PPB 10% FCS (% fu)", "protocol": "Binding of test compounds to plasma was determined using equilibrium dialysis (ED) and quantitative mass spectrometry interfaced with liquid chromatography (LC-MS). In brief, ED was performed with dialysis devices consisting of two chambers separated by a semipermeable membrane with a molecular weight cut-off of 5-10 kg/mol. One chamber was filled with 10% FCS in PBS containing 1-10 μmol/L test compound and the other chamber was filled with phosphate-buffer saline (PBS) with or without dextran. The dialysis chamber was incubated for 3-5 hours at 37° C. After incubation, protein was precipitated from aliquots of each chamber and the concentration of test compound in the supernatant of the plasma-containing compartment (Cserum) and of the buffer-containing compartment (Cbuffer) was determined by LC-MS. The fraction of unbound test compound (not bound to plasma) (fu) was calculated according to the following equation: […]"}, "LOVO cells": {"tested_on": "LOVO cells", "assay": "LOVO CTG proliferation assay (120 h) (CRC, G13D)", "format": "cell-based", "conditions": "Homo sapiens, CTG 120 h", "protocol": "LOVO CTG Proliferation Assay (120 h) (CRC, G13D)\nLOVO cells (ATCC CCL-229) are dispensed into 384-well plates, flat and clear bottom (Greiner, PNr. 781091) at a density of 1000 cells per well in 60 μL DMEM (Sigma D6429)+10% Fetal Calf Serum (HyClone, PNr.: SH30084.03) and incubated at 37° C. in a CO2 incubator overnight. The next day, compounds (10 mM stock in DMSO) are added with the ECHO acoustic liquid handler system (Beckman Coulter), including DMSO controls. Plates are incubated for 120 h, and cell viability is measured using CellTiter-Glo luminescent cell viability reagent (Promega product code G7570). Viability (stated as percent of control) is defined as relative luminescence units RLU of each well divided by the RLU of cells in DMSO controls. IC50 values are determined from viability measurements by non-linear regression using a four-parameter model."}}}
{"smiles": "Cc1cn(C)nc1-c1cc(O[C@@H](C)[C@@H]2CCCN2C)nc(-c2noc3c2CCC[C@@]32CCCc3sc(N)c(C#N)c32)n1", "note": "[II-68]", "values": [{"measurement": "fraction unbound", "setting": "[1]", "result": 0.09}, {"measurement": "IC50", "setting": "LOVO cells", "result": 894, "unit": "nM"}]}
{"smiles": "C[C@H](Oc1cc(-n2ccnc2)nc(-c2noc3c2CCC[C@@]32CCCc3sc(N)c(C#N)c32)n1)[C@@H]1CCCN1C", "note": "[II-69]", "values": [{"measurement": "fraction unbound", "setting": "[1]", "result": 0.45}, {"measurement": "IC50", "setting": "LOVO cells", "result": 52, "unit": "nM"}]}
{"smiles": "C[C@H](Oc1cc(-c2cc[nH]n2)nc(-c2noc3c2CCC[C@@]32CCCc3sc(N)c(C#N)c32)n1)[C@@H]1CCCN1C", "note": "[II-71]", "values": [{"measurement": "fraction unbound", "setting": "[1]", "result": 0.59}, {"measurement": "IC50", "setting": "LOVO cells", "result": 50, "unit": "nM"}]}
{"smiles": "C[C@H](Oc1cc(N2CCCC2=O)nc(-c2noc3c2CCC[C@@]32CCCc3sc(N)c(C#N)c32)n1)[C@@H]1CCCN1C", "note": "[II-73]", "values": [{"measurement": "fraction unbound", "setting": "[1]", "result": 0.22}, {"measurement": "IC50", "setting": "LOVO cells", "result": 250, "unit": "nM"}]}
{"smiles": "C[C@H](Oc1cc(-c2cnn(C)c2)nc(-c2noc3c2CCC[C@@]32CCCc3sc(N)c(C#N)c32)n1)[C@@H]1CCCN1C", "note": "[II-74]", "values": [{"measurement": "fraction unbound", "setting": "[1]", "result": 0.48}, {"measurement": "IC50", "setting": "LOVO cells", "result": 319, "unit": "nM"}]}
{"smiles": "C[C@H](Oc1cc(C2CCOCC2)nc(-c2noc3c2CCC[C@@]32CCCc3sc(N)c(C#N)c32)n1)[C@@H]1CCCN1C", "note": "[II-76]", "values": [{"measurement": "fraction unbound", "setting": "[1]", "result": 0.61}, {"measurement": "IC50", "setting": "LOVO cells", "result": 51, "unit": "nM"}]}
{"smiles": "Cc1nccn1-c1cc(O[C@@H](C)[C@@H]2CCCN2C)nc(-c2noc3c2CCC[C@@]32CCCc3sc(N)c(C#N)c32)n1", "note": "[II-79]", "values": [{"measurement": "fraction unbound", "setting": "[1]", "result": 0.15}, {"measurement": "IC50", "setting": "LOVO cells", "result": 106, "unit": "nM"}]}
{"smiles": "C[C@H](Oc1cc(-c2cncs2)nc(-c2noc3c2CCC[C@@]32CCCc3sc(N)c(C#N)c32)n1)[C@@H]1CCCN1C", "note": "[II-80]", "values": [{"measurement": "fraction unbound", "setting": "[1]", "result": 0.23}, {"measurement": "IC50", "setting": "LOVO cells", "result": 561, "unit": "nM"}]}
{"smiles": "CC(=O)N1CC=C(c2cc(O[C@@H](C)[C@@H]3CCCN3C)nc(-c3noc4c3CCC[C@@]43CCCc4sc(N)c(C#N)c43)n2)CC1", "note": "[II-81]", "values": [{"measurement": "fraction unbound", "setting": "[1]", "result": 0.52}, {"measurement": "IC50", "setting": "LOVO cells", "result": 289, "unit": "nM"}]}
{"smiles": "C[C@H](Oc1cc(-c2ccn(C3COC3)n2)nc(-c2noc3c2CCC[C@@]32CCCc3sc(N)c(C#N)c32)n1)[C@@H]1C[C@H](F)CN1C", "note": "[II-83]", "values": [{"measurement": "fraction unbound", "setting": "[1]", "result": 0.18}, {"measurement": "IC50", "setting": "LOVO cells", "result": 2200, "unit": "nM"}]}
{"smiles": "C[C@H](Oc1cc(-c2cnn(C)n2)nc(-c2noc3c2CCC[C@@]32CCCc3sc(N)c(C#N)c32)n1)[C@@H]1CCCN1C", "note": "[II-86]", "values": [{"measurement": "fraction unbound", "setting": "[1]", "result": 0.34}, {"measurement": "IC50", "setting": "LOVO cells", "result": 77, "unit": "nM"}]}
{"smiles": "C[C@H](Oc1cc([C@H]2CCOC2)nc(-c2noc3c2CCC[C@@]32CCCc3sc(N)c(C#N)c32)n1)[C@@H]1CCCN1C", "note": "[II-88]", "values": [{"measurement": "fraction unbound", "setting": "[1]", "result": 0.2}, {"measurement": "IC50", "setting": "LOVO cells", "result": 62, "unit": "nM"}]}
{"smiles": "C[C@H](Oc1cc(N2CCc3cccnc32)nc(-c2noc3c2CCC[C@@]32CCCc3sc(N)c(C#N)c32)n1)[C@@H]1CCCN1C", "note": "[II-90]", "values": [{"measurement": "fraction unbound", "setting": "[1]", "result": 0.01}, {"measurement": "IC50", "setting": "LOVO cells", "result": 735, "unit": "nM"}]}
{"smiles": "C[C@H](Oc1cc(-n2cccc3cnnc2-3)nc(-c2noc3c2CCC[C@@]32CCCc3sc(N)c(C#N)c32)n1)[C@@H]1CCCN1C", "note": "[II-92]", "values": [{"measurement": "fraction unbound", "setting": "[1]", "result": 0.09}, {"measurement": "IC50", "setting": "LOVO cells", "result": 467, "unit": "nM"}]}
{"smiles": "C[C@H](Oc1cc(-n2ccnc2Cl)nc(-c2noc3c2CCC[C@@]32CCCc3sc(N)c(C#N)c32)n1)[C@@H]1CCCN1C", "note": "[II-93]", "values": [{"measurement": "fraction unbound", "setting": "[1]", "result": 0.05}, {"measurement": "IC50", "setting": "LOVO cells", "result": 136, "unit": "nM"}]}
{"smiles": "C[C@H](Oc1cc(C2COCCO2)nc(-c2noc3c2CCC[C@@]32CCCc3sc(N)c(C#N)c32)n1)[C@@H]1CCCN1C", "note": "(stereo partly drawn) [II-95]", "values": [{"measurement": "fraction unbound", "setting": "[1]", "result": 0.53}, {"measurement": "IC50", "setting": "LOVO cells", "result": 149, "unit": "nM"}]}
{"smiles": "C[C@H](Oc1cc(-c2ccn(C)n2)nc(-c2noc3c2CCC[C@@]32CCCc3sc(N)c(C#N)c32)n1)[C@@H]1CCCN1C", "note": "[II-96]", "values": [{"measurement": "fraction unbound", "setting": "[1]", "result": 0.25}, {"measurement": "IC50", "setting": "LOVO cells", "result": 231, "unit": "nM"}]}
{"smiles": "C[C@H](Oc1cc(-c2ccn(C3CC3)n2)nc(-c2noc3c2CCC[C@@]32CCCc3sc(N)c(C#N)c32)n1)[C@@H]1CCCN1C", "note": "[II-98]", "values": [{"measurement": "fraction unbound", "setting": "[1]", "result": 0.01}, {"measurement": "IC50", "setting": "LOVO cells", "result": 608, "unit": "nM"}]}
{"smiles": "C[C@H](Oc1cc(N2CCC(C#N)C2)nc(-c2noc3c2CCC[C@@]32CCCc3sc(N)c(C#N)c32)n1)[C@@H]1CCCN1C", "note": "(stereo partly drawn) [II-99]", "values": [{"measurement": "fraction unbound", "setting": "[1]", "result": 0.11}, {"measurement": "IC50", "setting": "LOVO cells", "result": 286, "unit": "nM"}]}
{"smiles": "C[C@H](Oc1cc(-c2cn(C3COC3)nn2)nc(-c2noc3c2CCC[C@@]32CCCc3sc(N)c(C#N)c32)n1)[C@@H]1CCCN1C", "note": "[II-100]", "values": [{"measurement": "fraction unbound", "setting": "[1]", "result": 0.28}, {"measurement": "IC50", "setting": "LOVO cells", "result": 83, "unit": "nM"}]}
{"smiles": "C[C@H](Oc1cc(-c2ccc(N)nc2)nc(-c2noc3c2CCC[C@@]32CCCc3sc(N)c(C#N)c32)n1)[C@@H]1CCCN1C", "note": "[II-101]", "values": [{"measurement": "fraction unbound", "setting": "[1]", "result": 0.23}, {"measurement": "IC50", "setting": "LOVO cells", "result": 1020, "unit": "nM"}]}
